Source: patent US20080279791A1, “Use of Isoeugenol Methyl Ester as an Agent Against Bad Breath” (SYMRISE GMBH & CO. KG, priority 2004, published 2008)
Values after ≈ are worked out from the molar mass of the structure shown. Each block holds one molecule with its values, some of them ahead of it.

How the values were obtained:
Format in all cases: cell-based
[1] = tested on: fresh morning saliva; test: In-vitro test to reduce bad breath (medium inoculated with saliva, incubated, sniffed by panel)
Description: A sterile liquid medium inoculated with fresh morning saliva is incubated for a few days at 37° C. and then sniffed by a panel of testers.
As a control for the tests, Triclosan® (5-chloro-2-(2,4-dichlorophenoxy)phenol) was added to inoculated samples in a concentration of 0.05%.

[2] = tested on: Escherichia coli; test: Minimum inhibiting concentration, serial-dilution test
Description: (§1) The minimum inhibiting concentration (MIC) of isoeugenol methyl ether was determined in a serial-dilution test against various bacteria.

[3] = tested on: Fusobacterium nucleatum; test: as above
Description: as §1

[4] = tested on: Porphyromonas gingivalis; test: as above
Description: as §1

[5] = tested on: Prevotella intermedia; test: as above
Description: as §1

[6] = tested on: Pseudomonas aeruginosa; test: as above
Description: as §1

[7] = tested on: Staphylococcus aureus; test: as above
Description: as §1

[8] = tested on: Streptococcus mutans; test: as above
Description: as §1

[9] = tested on: Veilonella parvula; test: as above
Description: as §1

[10] = tested on: total number of bacteria in the samples of saliva; test: Total number of bacteria in samples of saliva; conditions: concentration of 1000 ppm

Structure (SMILES): Oc1cc(Cl)ccc1Oc1ccc(Cl)cc1Cl [Triclosan®, 5-chloro-2-(2,4-dichlorophenoxy)phenol, reference compound]
odour after the incubation period ([1]; 0.05% added to inoculated samples): the same faint odour of medium as the uninoculated samples

MIC [2]: > 1000 µg/mL
MIC [3]: 250 µg/mL (≈ 1400 µM)
MIC [4]: 500 µg/mL (≈ 2810 µM)
MIC [5]: 500 µg/mL (≈ 2810 µM)
MIC [6]: > 1000 µg/mL
MIC [7]: > 1000 µg/mL
MIC [8]: > 1000 µg/mL
MIC [9]: 250 µg/mL (≈ 1400 µM)
Structure (SMILES): CC=Cc1ccc(OC)c(OC)c1 (racemic) [isoeugenol methyl ether, 1,2-dimethoxy-4-propenyl benzene]
odour after the incubation period ([1]; 0.01% added to inoculated samples): no odour
odour at sensory assessment ([1]; 0.05% added to the inoculated medium just one hour before the sensory assessment): an unpleasant mixed odour of bad breath and a faint isoeugenol methyl ether note
odour after the incubation period ([1]; concentrations of significantly less than 0.01%): a changed characteristic odour or a mixed odour was discernible in some cases
minimum effective concentration ([1]; no odour after incubation of inoculated samples): 0.01%
Type [2]: No action up to 1000 ppm
Type ([3]; 250 ppm): bacteriostatic action
Type of action ([4]; 500 ppm): effectiveness
Type ([5]; 500 ppm): bactericidal action
Type [6]: No action up to 1000 ppm
Type [7]: No action up to 1000 ppm
Type [8]: No action up to 1000 ppm
Type ([9]; Veilonella parvula, 250 ppm): bacteriostatic action
reduction of the total number of bacteria in saliva samples [10]: no significant reduction
